For one data set, the system named is MRSA. Format: cell-based, Methicillin-Resistant S. aureus. The source says: (§1) NET1, NET2, NET3, and NET4 peptide antibiotics were used in the experiments. For the purpose of the study, both clinical isolates Methicillin-Resistant S. aureus (MRSA), Vancomycin-resistant Enterococcus (VRE), E. coli ER2566, E. coli 13846 bacteria and ATCC strains S. aureus and E. coli bacteria were used in the MIC study. All strains used in this study have been deposited in a strain collection of the Research Laboratory of Acibadem Mehmet Ali Aydinlar University. For experiment 0.5 McFarland bacterial suspension was prepared in Müeller Hinton Broth (MHB) media. In the 96-well plate, serial dilutions of peptide antibiotics starting from 512 to 0 μg/mL were made in MHB media and added 5 µl of bacterial suspensions. After incubated overnight at 37°C, results were evaluated according to turbidity (Teh et al. [2017]). Ampicillin was used as positive controls.

The subject of another data set is erythrocytes. The class given is cell-based. As to the method: Hemolytic activity assays were carried out using erythrocytes, using triton X-100 as lysis control agent. Hemolytic activities were analyzed by reading each well with a plate reader spectrophotometer device at 414 nm and the % lysis rate was calculated in Microsoft Excel according to the following formula (Eren et al. [2008]). Lysis%=[OD414-OD414blank]/[OD414totallysis-OD414blank]×100

A further data set deals with S. aureus ATCC29213. Format: cell-based.
From the text: as §1

A further data set concerns E. coli ER2566. The class given is cell-based.
From the text: as §1

A further data set deals with S. aureus ATCC25923. Format: cell-based.
From the text: as §1

Another data set relates to E. coli ATCC25922. The class given is cell-based.
From the text: as §1

The test system of a further data set is E. coli NTCC13846. The class given is cell-based.
From the text: as §1

Data set [1] concerns MRSA biofilm. As to the kind of experiment: Antibiofilm activity, CoMIC method. Format: cell-based, Methicillin-resistant S. aureus. As to conditions: peptides added just before the start of biofilm formation. As to the method: Ninety microliters of 0.5 McF Methicillin-resistant S. aureus (MRSA) (1.5×10^8 CFU/mL) in Congo Red Broth media with fructose was transferred into wells. Plates were incubated at 37°C. At the time just before the start of biofilm formation as optimized in Fig. 4, 10 µL of 1:2 serial dilutions of the antimicrobial peptides (2560–0 µg/mL) was added in wells. So that, final concentrations of peptides were 256–0 µg/mL. Incubation of media continued overnight. Then, wells were evaluated according to their black color formation.

Another data set deals with 3T3 cell line. As to the kind of experiment: in vitro. Format: cell-based. The source says: (§2) MTT Cell Proliferation Kit (Sigma), a colorimetric method, was used for this test to evaluate the damage that peptides can cause in eukaryotic cells and all cell lines used in this study have been deposited in a collection of the Research Laboratory of Acibadem Mehmet Ali Aydinlar University. The cell lines of 3T3 (ATCC CRL-1658) and HaCaT (ATCC PCS-200-011) were revived under appropriate culture conditions and made ready for the experiment. The final concentration of peptides reached 64 to 0.5 μg/mL. Samples were worked in triplicates for each concentration. Cells incubated without peptide-treatment under the same conditions were used as a control. Magainin II, a known natural AMP that has no cytotoxic effects, was used as a positive control (Bacalum and Radu [2015]). The results were analyzed by reading them with a 96-well plate reader at 550 and 690 nm.

The next data set deals with HaCaT cell line. As to the kind of experiment: in vitro. The class given is cell-based.
From the text: as §2

The nature of the next data set: in vitro. The class given is cell-based.
From the text: as §2

A further data set has as its system VRE. Format: cell-based, Vancomycin-resistant Enterococcus.
From the text: as §1

Data set [2] has as its system MRSA biofilm. As to the kind of experiment: Antibiofilm activity, conventional crystal violet (CV) method. Format: cell-based, Methicillin-resistant S. aureus. Particulars: for concentration that could be enough to inhibit the biofilms completely: allowing for deviation of about 16.7 in non-specific CV binding; for Peptide concentration inhibiting the biofilm at 100%, Crystal Violet: peptides added at the very beginning of culture. As to the method: There was 90 µL of 10^6 CFU/mL MRSA in MHB media with fructose transferred into wells. Then, 10 µL of 1:2 serial dilutions of the antimicrobial peptides (1280–0 µg/mL) was added in wells. So that, final concentrations of peptides were 128–0 µg/mL. Plates were incubated at 37°C overnight. After overnight incubation, they were analyzed with conventional CV method. For this purpose, the bacterial cultures were removed, and wells were washed with distilled water. 200 µl of 1% CV dye was added to each well and incubated at room temperature for 15 min in the dark. Then, CV dye was removed, and wells were washed with water. After dried the plate in an oven at 45–50°C, 33% acetic acid was added into wells to dissolve the dye and wells were spectrophotometrically read by Varioscan (Thermo, USA) at 590 nm (Stepanović et al. [2000]). Biofilm inhibiton rates (%) were calculated by the following formula (Liu et al. [2021]): (1-A590ofwellstreatedwithpeptides/[…])×100
Before this calculation, the values obtained from all wells were subtracted from the value from the empty wells (Blank).

The target of another data set is Proteinase K (Parengyodontium album, UniProt P06873). As to the kind of experiment: Protease resistance, Proteinase K treatment with HPLC analysis. The class given is in vitro ADME. As to conditions: analytical HPLC. As to the method: Proteinase K was used for testing the resistance of the designed peptides to proteases, since Proteinase K, a serine protease with broad-spectrum cleavage activity that preferentially cleaves aliphatic and aromatic amino acid residues, is widely used in the literature to determine the protease resistance of antimicrobial peptides (Lucio et al. [2017], Wang et al. [2019]). Afterwards, HPLC characterization was performed to understand the effect of Proteinase K on peptides.

≈ marks a conversion by molar mass, not a printed value. Non-standard residues stand in square brackets, D forms with d. Residues, ends and D or L forms follow the SMILES beside them.

Proteinase K, sequence (P06873 106-384): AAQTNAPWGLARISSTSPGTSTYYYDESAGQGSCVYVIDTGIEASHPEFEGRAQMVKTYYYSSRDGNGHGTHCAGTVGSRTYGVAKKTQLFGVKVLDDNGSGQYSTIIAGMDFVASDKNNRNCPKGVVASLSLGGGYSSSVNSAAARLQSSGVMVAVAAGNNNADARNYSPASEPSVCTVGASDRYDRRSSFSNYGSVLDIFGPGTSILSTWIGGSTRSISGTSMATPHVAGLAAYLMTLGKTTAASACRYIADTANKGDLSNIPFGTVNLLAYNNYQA

The term MIC denotes the least concentration at which growth counts as inhibited. A lower MIC goes with a more susceptible organism. In general, IC50 refers to the concentration that inhibits the measured activity by half. Lower therefore signals greater potency. `CC(C)C[C@H](NC(=O)[C@H](N)CCCNC(=N)N)C(=O)N[C@@H](CC(C)C)C(=O)N[C@@H](CC(C)C)C(=O)N[C@H](CCCNC(=N)N)C(=O)N[C@@H](CC(C)C)C(=O)N[C@@H](CC(C)C)C(=O)N[C@H](CCCNC(=N)N)C(=O)N[C@H](CCCNC(=N)N)C(=O)N[C@@H](CC(C)C)C(=O)N[C@@H](CC(C)C)C(=O)N[C@H](CCCNC(=N)N)C(=O)N[C@@H](CC(C)C)C(=O)N[C@@H](CC(C)C)C(=O)N[C@@H](CC(C)C)C(=O)N[C@H](CCCNC(=N)N)C(N)=O` [NET3, RLLLRLLRRLLRLLLR-NH2] (H-[dR]LLL[dR]LL[dR][dR]LL[dR]LLL[dR]-NH2; N-terminus assumed): the MIC in the data set on MRSA was 2 µg/mL (≈ 0.959 µM); in the data set with S. aureus ATCC29213, 2 µg/mL (≈ 0.959 µM); in the data set with E. coli ER2566, 0.5 µg/mL (≈ 0.24 µM); with S. aureus ATCC25923 it was 2 µg/mL (≈ 0.959 µM); in the data set on E. coli ATCC25922, 4 µg/mL (≈ 1.92 µM); in the data set with E. coli NTCC13846, 2 µg/mL (≈ 0.959 µM). This compound showed a minimal inhibitory concentration (MIC) against VRE of 0.5 µg/mL (≈ 0.24 µM). In addition, the “HC50 value as times the MIC value” in the data set on erythrocytes is listed as 16–32 times. The “therapeutic index for hemolytic activities” value with erythrocytes was determined as 32. For the same compound, the “Peptide concentration inhibiting the biofilm at 100%, CoMIC” value in the data set with MRSA biofilm [1] is on record as 128 µg/mL. Also, the entries for the “therapeutic index for cytotoxic activities” value in the data set on 3T3 cell line and in the data set with HaCaT cell line were 16 and 32, respectively. Also, the “IC50 value as times the MIC value” in the data set with HaCaT cell line was 16-32 times. Moreover, the IC50 in “in vitro” (human) was determined as 64 µg/mL (≈ 30.7 µM); in “in vitro” (mouse) it was 32 µg/mL (≈ 15.3 µM). In addition, the “concentration that could be enough to inhibit the biofilms completely” value with MRSA biofilm [2] (CV method) is listed as “less than 1 µg/mL”. The “Peptide concentration inhibiting the biofilm at 100%, Crystal Violet” value with MRSA biofilm [2] worked out at 4 µg/mL. For the same compound, the “resistance to proteases (HPLC after proteinase K treatment)” value (shortened to “resistance to proteases”) at Proteinase K is “not fractionated by proteases”.
Regarding `CC(C)C[C@H](NC(=O)[C@H](CC(C)C)NC(=O)[C@H](CC(C)C)NC(=O)[C@H](CCCNC(=N)N)NC(=O)[C@H](CC(C)C)NC(=O)[C@H](CC(C)C)NC(=O)[C@H](CCCNC(=N)N)NC(=O)[C@H](CCCNC(=N)N)NC(=O)[C@H](CC(C)C)NC(=O)[C@H](CC(C)C)NC(=O)[C@H](CCCNC(=N)N)NC(=O)[C@H](CC(C)C)NC(=O)[C@H](CC(C)C)NC(=O)[C@H](CC(C)C)NC(=O)[C@@H](N)CCCNC(=N)N)C(=O)N[C@@H](CCCNC(=N)N)C(N)=O` [NET2, RLLLRLLRRLLRLLLR-NH2] (H-RLLLRLLRRLLRLLLR-NH2; N-terminus assumed), the MIC against MRSA came out at 64 µg/mL (≈ 30.7 µM); against S. aureus ATCC29213 it was 64 µg/mL (≈ 30.7 µM); against E. coli ER2566, 4 µg/mL (≈ 1.92 µM); with S. aureus ATCC25923, 32 µg/mL (≈ 15.3 µM); against E. coli ATCC25922, 64 µg/mL (≈ 30.7 µM); with E. coli NTCC13846, 64 µg/mL (≈ 30.7 µM). Moreover, the minimal inhibitory concentration (MIC) against VRE was 2 µg/mL (≈ 0.959 µM). The “HC50 value as times the MIC value” in the data set with erythrocytes was 2–8 times. Moreover, the “therapeutic index for hemolytic activities” value in the data set on erythrocytes turned out to be 1. Besides, the “Peptide concentration inhibiting the biofilm at 100%, CoMIC” value in the data set on MRSA biofilm [1] is listed as over 256 µg/mL. Further, the “therapeutic index for cytotoxic activities” value in the data set with 3T3 cell line and in the data set on HaCaT cell line was 2 each time. In addition, the “IC50 value as times the MIC value” in the data set with HaCaT cell line is on record as 2-4 times. Also, the IC50 in the data set “in vitro” (human) and in the data set “in vitro” (mouse) was over 128 µg/mL in each case. Also, the “concentration that provided over 50% biofilm inhibition” value in the data set with MRSA biofilm [2] (CV method) amounted to 64 µg/mL. Also, in the data set with MRSA biofilm [2], the “Peptide concentration inhibiting the biofilm at 100%, Crystal Violet” value came out at 128 µg/mL. Moreover, the “resistance to proteases” value at Proteinase K was “completely degraded”.
As to `CC(C)C[C@@H](NC(=O)[C@H](N)CCCNC(=N)N)C(=O)N[C@H](CC(C)C)C(=O)N[C@H](CC(C)C)C(=O)N[C@H](CCCNC(=N)N)C(=O)N[C@H](CC(C)C)C(=O)N[C@H](CC(C)C)C(=O)N[C@H](CCCNC(=N)N)C(=O)N[C@H](CCCNC(=N)N)C(=O)N[C@H](CC(C)C)C(=O)N[C@H](CC(C)C)C(=O)N[C@H](CCCNC(=N)N)C(=O)N[C@H](CC(C)C)C(=O)N[C@H](CC(C)C)C(=O)N[C@H](CC(C)C)C(=O)N[C@H](CCCNC(=N)N)C(N)=O` [NET4, RLLLRLLRRLLRLLLR-NH2] (H-[dR][dL][dL][dL][dR][dL][dL][dR][dR][dL][dL][dR][dL][dL][dL][dR]-NH2; N-terminus assumed), the MIC against MRSA was determined as 16 µg/mL (≈ 7.67 µM); in the data set with S. aureus ATCC29213, 16 µg/mL (≈ 7.67 µM); with E. coli ER2566 it was 1 µg/mL (≈ 0.479 µM); in the data set with S. aureus ATCC25923, 16 µg/mL (≈ 7.67 µM); in the data set on E. coli ATCC25922, 8 µg/mL (≈ 3.84 µM); with E. coli NTCC13846, 32 µg/mL (≈ 15.3 µM). In the data set with VRE, this compound registered an MIC of 2 µg/mL (≈ 0.959 µM). In the data set with erythrocytes, the “therapeutic index for hemolytic activities” value amounted to 4. The “Peptide concentration inhibiting the biofilm at 100%, CoMIC” value in the data set on MRSA biofilm [1] is given as over 256 µg/mL. In addition, the “therapeutic index for cytotoxic activities” value in the data set on 3T3 cell line and with HaCaT cell line was 8 throughout. The “IC50 value as times the MIC value” in the data set on HaCaT cell line was 4-16 times. For the same compound, the IC50 in the data set “in vitro” (human) and in the data set “in vitro” (mouse) was over 128 µg/mL each time. Further, the cytotoxicity at 64 µg/ml in “in vitro” (human) is over 50%. Moreover, the “concentration that could be enough to inhibit the biofilms completely” value with MRSA biofilm [2] (CV method) is given as 64 µg/mL. The “Peptide concentration inhibiting the biofilm at 100%, Crystal Violet” value in the data set on MRSA biofilm [2] was 128 µg/mL. For the same compound, the “resistance to proteases” value at Proteinase K is reported as “not fractionated by proteases”.

The record behind these values is paper PMC11068671, “New-generation biofilm effective antimicrobial peptides and a real-time anti-biofilm activity assay: CoMIC” (Applied Microbiology and Biotechnology, 2024).
